Key:
CYPES [1] = assay: Pre-emergence action against CYPES; assay type: in vivo, Cyperus esculentus; conditions: pre-emergence, dosage 320 g/ha, scored visually after 3 weeks vs untreated controls
Summary of the method: (§1)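 Seeds sown in sandy loam in wood-fiber pots and covered with soil. Greenhouse growth; visual damage scored after 3 weeks versus untreated controls (100% = dead, 0% = like control).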

ABUTH [2] = assay: Post-emergence action against ABUTH; assay type: in vivo, Abutilon theophrasti; conditions: post-emergence, dosage 80 g/ha, visual assessment about 3 weeks after treatment vs untreated controls
Summary of the method: (§2)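 Weeds grown in sandy loam in greenhouse, treated at one-leaf stage (2–3 weeks after sowing) with WP or EC formulations sprayed as aqueous suspension/emulsion at 600 to […] water with 0.2% wetting agent. Visual rating after about 3 weeks versus untreated controls, as % herbicidal action (100% = plants dead, 0% = like control).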

AMARE [3] = assay: Pre-emergence action against AMARE; assay type: in vivo, Amaranthus retroflexus; conditions: pre-emergence, dosage 320 g/ha, scored visually after 3 weeks vs untreated controls
Summary of the method: as §1

ECHCG [4] = assay: Pre-emergence action against ECHCG; assay type: in vivo, Echinochloa crus-galli; conditions: pre-emergence, dosage 320 g/ha, scored visually after 3 weeks vs untreated controls
Summary of the method: as §1

ALOMY = assay: Pre-emergence action against ALOMY; assay type: in vivo, Alopecurus myosuroides; conditions: dosage 320 g/ha; pre-emergence; scored visually after 3 weeks vs untreated controls; 100% = plants have died, 0% = like control plants
Summary of the method: as §1

POLCO [5] = assay: Post-emergence action against POLCO; assay type: in vivo, Polygonum convolvulus; conditions: post-emergence, dosage 80 g/ha
Protocol: (§3) Seeds of monocotyledonous and dicotyledonous weed and crop plants are laid out in sandy loam soil in wood-fiber pots, covered with soil and cultivated in a greenhouse under good growth conditions. 2 to 3 weeks after sowing, the test plants are treated at the one-leaf stage. The compounds of the invention, formulated in the form of wettable powders (WP) or as emulsion concentrates (EC), are then sprayed onto the green parts of the plants in the form of an aqueous suspension or emulsion at a water application rate equating to […], with addition of 0.2% wetting agent. After the test plants have been left to stand in the greenhouse under optimal growth conditions for about 3 weeks, the action of the preparations is assessed visually in comparison to untreated controls (herbicidal action in percent (%): 100% activity=the plants have died, 0% activity=like control plants). […] At the same time, inventive compounds leave Gramineae crops such as barley, wheat, rye, millet/Sorghum, corn or rice virtually undamaged when applied post-emergence, even at high active ingredient dosages. In addition, some substances are also harmless to dicotyledonous crops such as soya, cotton, oilseed rape, sugar beet or potatoes. Some of the compounds according to the invention have high selectivity and are therefore suitable for controlling unwanted vegetation in agricultural crops by the post-emergence method. The data of Tables B18 to B34 below illustrate, in an exemplary manner, the […] herbicidal action of the compounds according to the invention, the herbicidal activity being stated in percent.

MATIN [6] = assay: Post-emergence action against MATIN; assay type: in vivo, Matricaria inodora; conditions: post-emergence, dosage 80 g/ha, visual assessment about 3 weeks after treatment vs untreated controls
Summary of the method: as §2

PHBPU [7] = assay: Post-emergence action against PHBPU; assay type: in vivo, Pharbitis purpurea; conditions: post-emergence, dosage 80 g/ha
Summary of the method: as §2

VIOTR [8] = assay: Post-emergence action against VIOTR; assay type: in vivo, Viola tricolor; conditions: post-emergence, dosage 80 g/ha
Summary of the method: as §2

MATIN [9] = assay: Pre-emergence action against MATIN; assay type: in vivo, Matricaria inodora; conditions: Dosage 320 g/ha, pre-emergence
Summary of the method: as §1

SETVI [10] = assay: Post-emergence action against SETVI; assay type: in vivo, Setaria viridis; conditions: post-emergence, dosage 80 g/ha, visual assessment about 3 weeks after treatment vs untreated controls
Summary of the method: as §2

VIOTR [11] = assay: Pre-emergence action against VIOTR; assay type: in vivo, Viola tricolor; conditions: Dosage 320 g/ha, pre-emergence
Summary of the method: as §1

ABUTH [12] = assay: Pre-emergence action against ABUTH; assay type: in vivo, Abutilon theophrasti; conditions: pre-emergence, dosage 320 g/ha, scored visually after 3 weeks vs untreated controls
Summary of the method: as §1

ECHCG [13] = assay: Post-emergence action against ECHCG; assay type: in vivo, Echinochloa crus-galli; conditions: post-emergence, dosage 80 g/ha, visual assessment about 3 weeks after treatment vs untreated controls
Summary of the method: as §2

POLCO [14] = assay: Pre-emergence action against POLCO; assay type: in vivo, Polygonum convolvulus; conditions: Dosage 320 g/ha, pre-emergence
Description: Seeds of monocotyledonous and dicotyledonous weed plants and crop plants are laid out in sandy loam soil in wood-fiber pots and covered with soil. The compounds of the invention, formulated in the form of wettable powders (WP) or as emulsion concentrates (EC), are then applied to the surface of the covering soil in the form of an aqueous suspension or emulsion at a water application rate equating to […], with addition of 0.2% wetting agent. After the treatment, the pots are placed in a greenhouse and kept under good growth conditions for the trial plants. The damage to the test plants is scored visually after a test period of 3 weeks by comparison with untreated controls (herbicidal activity in percent (%): 100% activity=the plants have died, 0% activity=like control plants).

SETVI [15] = assay: Pre-emergence action against SETVI; assay type: in vivo, Setaria viridis; conditions: pre-emergence, dosage 320 g/ha, scored visually after 3 weeks vs untreated controls
Summary of the method: as §1

STEME [16] = assay: Pre-emergence action against STEME; assay type: in vivo, Stellaria media; conditions: Dosage 320 g/ha, pre-emergence
Summary of the method: as §1

STEME [17] = assay: Post-emergence action against STEME; assay type: in vivo, Stellaria media; conditions: post-emergence, dosage 80 g/ha
Summary of the method: as §2

AMARE [18] = assay: Post-emergence action against AMARE; assay type: in vivo, Amaranthus retroflexus; conditions: post-emergence, dosage 80 g/ha, visual assessment about 3 weeks after treatment vs untreated controls
Summary of the method: as §2

AVEFA [19] = assay: Post-emergence action against AVEFA; assay type: in vivo, Avena fatua; conditions: post-emergence, dosage 80 g/ha, visual assessment about 3 weeks after treatment vs untreated controls
Protocol: as §3

CYPES [20] = assay: Post-emergence action against CYPES; assay type: in vivo, Cyperus esculentus; conditions: post-emergence, dosage 80 g/ha, visual assessment about 3 weeks after treatment vs untreated controls
Summary of the method: as §2

VERPE [21] = assay: Post-emergence action against VERPE; assay type: in vivo, Veronica persica; conditions: dosage 80 g/ha
Summary of the method: as §2

VERPE [22] = assay: Pre-emergence action against VERPE; assay type: in vivo, Veronica persica; conditions: Dosage 320 g/ha, pre-emergence
Summary of the method: as §1

AVEFA [23] = assay: Pre-emergence action against AVEFA; assay type: in vivo, Avena fatua; conditions: dosage 320 g/ha, scored visually after 3 weeks vs untreated controls
Summary of the method: as §1

PHBPU [24] = assay: Pre-emergence action against PHBPU; assay type: in vivo, Pharbitis purpurea; conditions: Dosage 320 g/ha, pre-emergence
Summary of the method: as §1

| Compound | Pre-emergence action against CYPES (herbicidal activity) (CYPES [1]) [%] | Post-emergence action against ABUTH (herbicidal action in percent) (ABUTH [2]) [%] | Pre-emergence action against AMARE (herbicidal activity) (AMARE [3]) [%] | Pre-emergence action against ECHCG (herbicidal activity) (ECHCG [4]) [%] | Pre-emergence action against ALOMY (herbicidal activity in percent) (ALOMY) [%] | Post-emergence action against POLCO (POLCO [5]) | Post-emergence action against MATIN (herbicidal action in percent) (MATIN [6]) [%] | Post-emergence action against PHBPU (PHBPU [7]) | Post-emergence action against VIOTR (VIOTR [8]) | Pre-emergence action against MATIN (MATIN [9]) [%] | Post-emergence action against SETVI (herbicidal action in percent) (SETVI [10]) [%] | Pre-emergence action against VIOTR (VIOTR [11]) [%] | Pre-emergence action against ABUTH (herbicidal activity) (ABUTH [12]) [%] | Post-emergence action against ECHCG (herbicidal action in percent) (ECHCG [13]) [%] | Pre-emergence action against POLCO (POLCO [14]) [%] | SETVI (Table B8, pre-emergence herbicidal activity) (SETVI [15]) [%] | Pre-emergence action against STEME (STEME [16]) [%] | Post-emergence action against STEME (STEME [17]) | Post-emergence action against AMARE (herbicidal action in percent) (AMARE [18]) [%] | Post-emergence action against CYPES (herbicidal action in percent) (CYPES [20]) [%] | further results |
| --- | --- | --- | --- | --- | --- | --- | --- | --- | --- | --- | --- | --- | --- | --- | --- | --- | --- | --- | --- | --- | --- |
| CCn1nnnc1NC(=O)c1ccc(C)c(C(C)=O)c1C [2-1] | 80 | 80 | 100 | 90 | 90 | 100 | 90 | 90 | 100 | 90 | 80 | 100 | 90 | 100 | 90 | 90 | 90 | 80 | 100 |  |  |
| CCn1nnnc1NC(=O)c1ccc(S(C)(=O)=O)c(C(C)=O)c1Cl [2-127] | 90 | 100 | 100 | 100 |  |  | 90 | 100 | 100 | 100 | 90 | 100 | 100 | 100 |  | 90 | 90 | 100 | 100 | 90 | Post-emergence action against AVEFA (herbicidal action in percent) (AVEFA [19]): 90%; Post-emergence action against VERPE (VERPE [21]): 100; Pre-emergence action against VERPE (VERPE [22]): 100%; Pre-emergence action against AVEFA (herbicidal activity) (AVEFA [23]): 90%; Pre-emergence action against PHBPU (PHBPU [24]): 90% |
| CCCn1nnnc1NC(=O)c1ccc(S(C)(=O)=O)c(C(=O)C2CC2)c1C [3-9] |  | 80 | 100 | 100 |  |  | 100 | 100 | 100 | 90 | 100 | 100 | 100 | 100 | 80 | 100 |  | 100 | 100 | 80 | Post-emergence action against AVEFA (herbicidal action in percent) (AVEFA [19]): 100%; Post-emergence action against VERPE (VERPE [21]): 100; Pre-emergence action against AVEFA (herbicidal activity) (AVEFA [23]): 90% |
| CCCn1nnnc1NC(=O)c1ccc(C(F)(F)F)c(C(C)=O)c1OC [3-48] | 90 | 100 | 100 | 100 | 90 | 80 | 100 | 100 | 100 | 100 | 80 | 100 | 100 | 90 | 80 | 100 | 90 | 100 |  | 90 | Post-emergence action against VERPE (VERPE [21]): 80; Pre-emergence action against VERPE (VERPE [22]): 90%; Pre-emergence action against PHBPU (PHBPU [24]): 80% |
| CCCn1nnnc1NC(=O)c1ccc(C(F)(F)F)c(C(C)=O)c1Br [3-195] | 90 |  | 100 | 100 | 80 | 90 | 90 | 90 | 90 | 100 | 90 | 100 | 100 | 90 |  | 100 | 90 | 90 |  | 80 | Pre-emergence action against VERPE (VERPE [22]): 100%; Pre-emergence action against AVEFA (herbicidal activity) (AVEFA [23]): 90%; Pre-emergence action against PHBPU (PHBPU [24]): 90% |

Source: patent publication US11051515B2, “3-acyl-benzamides and their use as herbicides” (Bayer Aktiengesellschaft, priority 2017, dated 2021)
